Experiments:
[1] = molecular target: T1, Cd74 (Mus musculus, UniProt P04441); assay: Solvent-induced protein precipitation profiling; type: binding; settings: 7.8 μM and 26 μM; relative to compound 3 at 10 μM
T1 construct: We treated NUP-MDSC cell lysate with compound 2; endogenous in cells; host or cells: mouse NUP-MDSC (lysate)
T1 sequence (P04441 1-279): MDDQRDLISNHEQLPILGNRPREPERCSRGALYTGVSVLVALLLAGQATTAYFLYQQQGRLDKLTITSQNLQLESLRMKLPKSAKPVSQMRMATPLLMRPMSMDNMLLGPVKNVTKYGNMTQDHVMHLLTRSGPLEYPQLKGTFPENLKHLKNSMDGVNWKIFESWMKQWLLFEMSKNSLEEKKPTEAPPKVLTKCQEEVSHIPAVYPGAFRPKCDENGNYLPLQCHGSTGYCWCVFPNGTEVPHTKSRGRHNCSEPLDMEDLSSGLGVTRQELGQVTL
Procedure: (§1) NUP-MDSCs were differentiated as described above, washed twice with PBS, resuspended in lysis buffer (PBS, 0.4% IGEPAL CA-630, 1× Halt Protease-Inhibitor Cocktail (Thermo Fisher Scientific)), and subjected to three freeze-thaw cycles. The lysate was cleared by centrifugation for 30 min at 18,000g and 4 °C. The soluble fraction was diluted to 4 mg/ml and allowed to warm up to room temperature. Equal volumes of lysate were treated in triplicates with 100 x compound stock solutions (in DMSO) or DMSO for 15 min at room temperature (final concentrations: cmpd 2: 7.8 μM (3xEC50) and 26 μM (10xEC50), cmpd 3: 10 μM and 26 μM). […]
(§2) Peptides were analyzed via LC-MS/MS on a Vanquish Neo UHPLC coupled to an Orbitrap Eclipse Tribrid mass spectrometer (Thermo Fisher Scientific). […] Samples were measured, employing a MS3 method with real-time search. […] To obtain quantitative information on TMT reporter ions, each peptide precursor was fragmented again as for MS2 analysis followed by synchronous selection of the up to 10 most intense peptide fragments in the iontrap ([37]) and further fragmentation via HCD using an NCE of 55%. […] The MS3 scan was recorded in the OT at 30,000 resolution (scan range 110–500 m/z, isolation window of 0.7 m/z, AGC of 2e4 charges, maxIT of 120 ms). […]

[2] = molecular target: T2, Acyp1 (Mus musculus, UniProt P56376); assay: Solvent-induced protein precipitation profiling; type: binding; settings: 7.8 μM and 26 μM; relative to compound 3 at 10 μM
T2 construct: We treated NUP-MDSC cell lysate with compound 2; endogenous in cells; host or cells: mouse NUP-MDSC (lysate)
T2 sequence (P56376 1-99): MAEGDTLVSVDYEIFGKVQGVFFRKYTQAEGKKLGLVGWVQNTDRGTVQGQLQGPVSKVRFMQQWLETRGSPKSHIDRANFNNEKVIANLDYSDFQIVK
Procedure: as §1, §2

stabilization against solvent-induced aggregation of Cd74 [1]: dose-dependent stabilization
stabilization against solvent-induced aggregation of Acyp1 [2]: dose-dependent stabilization
SMILES: CCOC(=O)c1nnn(-c2nn3nnnc3c3ccccc23)c1C [compound 2]

Source: paper PMC10518717, “High-Throughput Screening and Proteomic Characterization of Compounds Targeting Myeloid-Derived Suppressor Cells” (Molecular & Cellular Proteomics : MCP, 2023)
